{"source": "paper PMC9167309", "about": "“Multiple-reaction monitoring (MRM) LC–MS/MS quantitation of venlafaxine and its O-desmethyl metabolite for a preclinical pharmacokinetic study in rabbits” (Scientific Reports, 2022)", "key": {"[1]": {"system": "noradrenaline reuptake", "set-up": "method as in doi:10.2165/00023210-200014060-00006", "conditions": "cited from earlier work"}, "[2]": {"system": "dopamine reuptake", "set-up": "method as in doi:10.2165/00023210-200014060-00006", "conditions": "cited from earlier work"}, "[3]": {"experiment": "Preclinical PK study: plasma VEN and ODV after a single oral dose of ER formulations, LC-MRM-MS/MS, noncompartmental analysis", "type": "in vivo, New Zealand White rabbits", "conditions": "throughout the sampling period (36 h); after oral optimized ER tablet and RLD; above LOQ", "procedure": "Four pairs (male/female) of healthy rabbits, each weighing 3–4 kg, were provided by Government Rabbit Farm, Wussan (Pattan), Kashmir. The rabbits were divided into a reference group and a test group. […] The resulting plasma samples were frozen at − 40 °C until further analysis.\nThe PK evaluation summarized in Table 11 was carried out by way of noncompartmental analysis (NCA) using WinNonlin 8.1 and the additional statistical computations were performed in SAS 9.4. […] The statistical assurance of bioequivalent similarity given in Table 12 was computed using analysis of variance on log-transformed PK parameters (Cmax, AUClast, and AUCINF_obs) of reference and test product."}, "[4]": {"system": "serotonin reuptake", "conditions": "cited from earlier work"}}, "data": [{"smiles": "COc1ccc(C(CN(C)C)C2(O)CCCCC2)cc1", "note": "(racemic) [VEN, (RS) 1-[2-(dimethylamino)-1-(4-methoxyphenyl)ethyl]cyclohexanol]", "values": [{"measurement": "inhibition of noradrenaline reuptake", "setting": "[1]", "value": "potent inhibitors"}, {"measurement": "inhibition of dopamine reuptake", "setting": "[2]", "value": "weakly inhibit"}, {"measurement": "plasma concentrations", "setting": "[3]", "value": "> 0.5", "unit": "ng/mL"}]}, {"smiles": "CN(C)CC(c1ccc(O)cc1)C1(O)CCCCC1", "note": "(stereo not shown) [ODV, O-desmethylvenlafaxine]", "values": [{"measurement": "inhibition of noradrenaline reuptake", "setting": "[1]", "value": "potent inhibitors"}, {"measurement": "inhibition of serotonin reuptake", "setting": "[4]", "value": "potent inhibitors"}, {"measurement": "inhibition of dopamine reuptake", "setting": "[2]", "value": "weakly inhibit"}, {"measurement": "plasma concentrations", "setting": "[3]", "value": "> 0.5", "unit": "ng/mL"}]}]}
